Assay results: US6541491B1, “4-mercaptopyrrolidine derivatives as farnesyl transferase inhibitors” (Zeneca Limited, priority 1995, dated 2003)
Structures can show the parent of a compound that is named as a salt.

Columns and labels:
[1] = target: T1, Farnesyl protein transferase (FPT) (Homo sapiens, UniProt P49354+P49356); test: Farnesyl protein transferase (FPT) inhibition, tritiated farnesyl pyrophosphate incorporation into ras-CVIM; format: biochemical; details: FPT partially purified from human placenta; 300 nM tritiated farnesyl pyrophosphate, 120 nM ras-CVIM, 20 minutes at 37°
T1 construct: partially purified from human placenta by ammonium sulphate fractionation; from tissue; host or cells: human placenta
Experimental: Biological activity was tested as follows. Farnesyl protein transferase (FPT) was partially purified from human placenta by ammonium sulphate fractionation followed by a single Q-Sepharose® (Pharmacia. Inc) anion exchange chromatography essentially as described by Ray and Lopez-Belmonte (Ray K P and Lopez-Belmonte J (1992) Biochemical Society Transations 20 494-497). The substrate for FPT was Kras (CVIM C-terminal sequence). The cDNA for oncogenic val 12 variant of human c-Ki-ras-24B was obtained from the plasmid pSW11-1(ATCC). This was then subcloned into the polylinker of a suitable expression vector e.g. plC 147. The Kras was obtained after expression in the E. coli strain, BL21. The expression and purification of c-KI-ras-24B and the vall2 variant in E. coli has also been reported by Lowe et al (Lowe P N et al. J. Biol. Chem. (1991) 266 1672-1678).
Incubations with enzyme contained 300 nM tritiated farnesyl pyrophosphate (DuPont/New England Nuclear), 120 nM ras-CVIM, 50 mM Tris HCl pH 8.0. 5 mM MgCl2, 10 μM ZnCl2, 5 mM dithiotheitol and compounds were added at appropriate concentrations in DMSO (3% final concentration in test and vehicle control). […] Precipitated protein was then collected onto glass fibre filter mats (B) using a Tomtec® cell harvester and tritiated label was measured in a Wallac® 1204 Betaplate scintillation counter.

Row | melting point [°C] | IC50 [1] [nM] | Compound
1 | 101 to 105 |  | O=C(NCc1ccc(Cl)c(Cl)c1)c1ccc(C(=O)NC[C@@H]2C[C@H](S)CN2)nc1 (as salt: salt) [Example 13, 5-[N-(3,4-dichlorobenzyl)carbamoyl]-N-((2S,4S)-4-sulfanylpyrrolidin-2-yl-methyl)pyridine-2-carboxamide]
2 |  | ~500 | C=CCOC(=O)c1cc(NC(=O)[C@@H]2C[C@H](SC(C)=O)CN2C(=O)OCc2ccc([N+](=O)[O-])cc2)cc(C(=O)N(C)OC)c1 [Example 7, 5 {[(2S,4S),4-acetylsulfanyl-1-(4-nitro-benzyloxycarbonyl)-pyrrolidine-2-carbonyl]-amino}-3(N-methyl-methoxycarbamoyl)-benzoic acid allyl ester]
